The numbers were not newly measured in patent US20220142214A1, “SYNERGISTIC COMPOSITION OF FOOD-BASED AND ORGANIC NUTRIENTS AND METHODS FOR USE AND MANUFACTURE” (priority 2020, published 2022), which cites them from elsewhere.

The structures appear in SMILES notation. Read-outs that look alike come from different tables or passages of the source.

The subject of series [1] is B16-BL6 cells. The note with it: for tumor growth: intraperitoneal administration at time of i.m. injection of B16-BL6 cells.
Series [2] relates to B16-BL6 cells. To be noted: dose-dependent.
[3] abbreviates: intraperitoneal administration, syngeneic mice.

Consider `O=C(O[C@@H]1Cc2c(O)cc(O)cc2O[C@@H]1c1cc(O)c(O)c(O)c1)c1cc(O)c(O)c(O)c1` [EGCG, Epigallocathechin-3-gallate], for which, in the series with B16-BL6 cells [1], the tumor growth result is recorded as “significant, dose-dependent delay of tumor growth”. In addition, the toxicity entry with B16-BL6 cells [1] (setting [3]) was “without toxicity”.
As to `O=c1cc(-c2ccc(O)cc2)oc2cc(O)cc(O)c12` [apigenin], in the series with B16-BL6 cells [2], the “number of B16-BL6 colonies in the lungs” value is “significantly decreased”. Besides, in the series on B16-BL6 cells [1], the tumor growth entry was “significant, dose-dependent delay of tumor growth”. The toxicity entry in the series on B16-BL6 cells [1] (setting [3]) is given as “without toxicity”.
As for `O=c1c(O)c(-c2ccc(O)c(O)c2)oc2cc(O)cc(O)c12` [quercetin], the “number of B16-BL6 colonies in the lungs” value in the series with B16-BL6 cells [2] was “significantly decreased”. In addition, the tumor growth entry with B16-BL6 cells [1] is recorded as “significant, dose-dependent delay of tumor growth”. Further, the toxicity result with B16-BL6 cells [1] (mouse, in vivo, ip) is “without toxicity”.
In the case of `Oc1ccc(C=Cc2cc(O)cc(O)c2)cc1` [resveratrol], the tumor growth entry with B16-BL6 cells [1] was “significant, dose-dependent delay of tumor growth”. In addition, in the series with B16-BL6 cells [1] (mouse, in vivo, ip), the toxicity result is listed as “without toxicity”.
Consider `CC/C(=C(\c1ccccc1)c1ccc(OCCN(C)C)cc1)c1ccccc1` [tamoxifen], for which the “number of B16-BL6 colonies in the lungs” value in the series on B16-BL6 cells [2] was “significantly decreased”. The tumor growth result in the series on B16-BL6 cells [1] is “significant, dose-dependent delay of tumor growth”. Further, the toxicity entry in the series on B16-BL6 cells [1] (mouse, in vivo, ip) is listed as “without toxicity”.
